Molecules are shown by their SMILES. Where only a bound is given, the exact number is not on record here.

Biological target in the first test: not listed separately
As to the kind of experiment: Displacement of ATP from myosin light chain kinase.
By Ki is commonly meant a dissociation constant, usually derived from enzyme kinetics or from competition with a known ligand. A higher Ki goes with a looser hold on the target. For `O=C1NC(=O)c2c1c1c3ccccc3n3c1c1c2c2ccccc2n1[C@@H]1O[C@H]3C[C@@H]1CO`, the affinity, expressed as Ki, was 0.7 nM.

The next test deals with cAMP-dependent protein kinase (PKA) (Homo sapiens, UniProt P22694+P17612+P22612). Nature of the test: Inhibition of cAMP-dependent protein kinase (PKA). The format is protein assay.
As usually defined, the IC50 is the concentration that gives 50% inhibition. Low values mean inhibition by little substance, high ones a need for much substance. `O=C1NC(=O)c2c1c1c3ccccc3n3c1c1c2c2ccccc2n1[C@@H]1O[C@H]3C[C@@H]1CO` yielded an IC50 of 18.5 nM.

Another test deals with Protein kinase C (PKC) (Rattus norvegicus) (UniProt P05696+P68403+P09216+P63319+P09215+Q64617+Q9WTQ0+P09217). Nature of the test: Inhibition of partially purified rat brain protein kinase C.
`O=C1NC(O)c2c1c1c3ccccc3n3c1c1c2c2ccccc2n1[C@H]1CC[C@@H]3O1` (stereo partly drawn) yielded an Inhibition of 50 nM. Still for that read-out and setting: next, `O=C1NC(=O)c2c1c1c3ccccc3n3c1c1c2c2ccccc2n1[C@H]1CC[C@@H]3O1`: 19 nM. Still for that read-out and setting: next, `O=C1NC(=S)c2c1c1c3ccccc3n3c1c1c2c2ccccc2n1[C@H]1CC[C@@H]3O1`: 58 nM. Same read-out and setting: next, `CNC(=O)[C@@H]1C[C@@H]2O[C@H]1n1c3ccccc3c3c4c(c5c6ccccc6n2c5c31)C(=O)NC4=O`: 0.5 nM; `CN1C(=O)c2c(c3c4ccccc4n4c3c3c2c2ccccc2n3[C@@H]2CC[C@H]4O2)C1=O`: > 5000 nM; `O=C1NC(=O)c2c1c1c3ccccc3n3c1c1c2c2ccccc2n1[C@@H]1O[C@H]3C[C@@]1(O)C(=O)O`: 6 nM. For `NN1C(=O)c2c(c3c4ccccc4n4c3c3c2c2ccccc2n3[C@@H]2CC[C@H]4O2)C1=O`, the Inhibition is > 5000 nM. Same read-out and setting: next, `O=C1NC(=O)c2c1c1c3ccccc3n3c1c1c2c2ccccc2n1[C@@H]1O[C@H]3C[C@@H]1CO`: 1.7 nM; `C=C1C[C@@H]2O[C@H]1n1c3ccccc3c3c4c(c5c6ccccc6n2c5c31)C(=O)NC4=O`: 5 nM; `NC1=NC(=O)c2c1c1c3ccccc3n3c1c1c2c2ccccc2n1[C@@H]1CC[C@H]3O1`: 13 nM. On the same count and under the same terms, next, `CN(C)C[C@@H]1C[C@@H]2O[C@H]1n1c3ccccc3c3c4c(c5c6ccccc6n2c5c31)C(=O)NC4=O`: 4 nM. Molecule `O=C1NC(=O)c2c1c1c3ccccc3n3c1c1c2c2ccccc2n1[C@@H]1O[C@H]3C[C@H]1C(=O)O` showed an Inhibition of 20 nM. Same read-out and setting: next, `S=C1NC(=S)c2c1c1c3ccccc3n3c1c1c2c2ccccc2n1[C@H]1CC[C@@H]3O1`: 42 nM; `O=C1NC(=O)c2c1c1c3ccccc3n3c1c1c2c2ccccc2n1[C@@H]1O[C@H]3C[C@H]1CO`: 2.4 nM.

Turning to `O=C1NCc2c1c1c3ccccc3n3c1c1c2c2ccccc2n1[C@H]1CC[C@@H]3O1`, the Inhibition turned out to be 18 nM.

The target of another test is Receptor tyrosine-protein kinase erbB-2 (Homo sapiens, UniProt P04626). Nature of the test: Inhibition of neu (erb-B2) HER2 kinase.
Receptor tyrosine-protein kinase erbB-2, sequence (P04626 whole entry): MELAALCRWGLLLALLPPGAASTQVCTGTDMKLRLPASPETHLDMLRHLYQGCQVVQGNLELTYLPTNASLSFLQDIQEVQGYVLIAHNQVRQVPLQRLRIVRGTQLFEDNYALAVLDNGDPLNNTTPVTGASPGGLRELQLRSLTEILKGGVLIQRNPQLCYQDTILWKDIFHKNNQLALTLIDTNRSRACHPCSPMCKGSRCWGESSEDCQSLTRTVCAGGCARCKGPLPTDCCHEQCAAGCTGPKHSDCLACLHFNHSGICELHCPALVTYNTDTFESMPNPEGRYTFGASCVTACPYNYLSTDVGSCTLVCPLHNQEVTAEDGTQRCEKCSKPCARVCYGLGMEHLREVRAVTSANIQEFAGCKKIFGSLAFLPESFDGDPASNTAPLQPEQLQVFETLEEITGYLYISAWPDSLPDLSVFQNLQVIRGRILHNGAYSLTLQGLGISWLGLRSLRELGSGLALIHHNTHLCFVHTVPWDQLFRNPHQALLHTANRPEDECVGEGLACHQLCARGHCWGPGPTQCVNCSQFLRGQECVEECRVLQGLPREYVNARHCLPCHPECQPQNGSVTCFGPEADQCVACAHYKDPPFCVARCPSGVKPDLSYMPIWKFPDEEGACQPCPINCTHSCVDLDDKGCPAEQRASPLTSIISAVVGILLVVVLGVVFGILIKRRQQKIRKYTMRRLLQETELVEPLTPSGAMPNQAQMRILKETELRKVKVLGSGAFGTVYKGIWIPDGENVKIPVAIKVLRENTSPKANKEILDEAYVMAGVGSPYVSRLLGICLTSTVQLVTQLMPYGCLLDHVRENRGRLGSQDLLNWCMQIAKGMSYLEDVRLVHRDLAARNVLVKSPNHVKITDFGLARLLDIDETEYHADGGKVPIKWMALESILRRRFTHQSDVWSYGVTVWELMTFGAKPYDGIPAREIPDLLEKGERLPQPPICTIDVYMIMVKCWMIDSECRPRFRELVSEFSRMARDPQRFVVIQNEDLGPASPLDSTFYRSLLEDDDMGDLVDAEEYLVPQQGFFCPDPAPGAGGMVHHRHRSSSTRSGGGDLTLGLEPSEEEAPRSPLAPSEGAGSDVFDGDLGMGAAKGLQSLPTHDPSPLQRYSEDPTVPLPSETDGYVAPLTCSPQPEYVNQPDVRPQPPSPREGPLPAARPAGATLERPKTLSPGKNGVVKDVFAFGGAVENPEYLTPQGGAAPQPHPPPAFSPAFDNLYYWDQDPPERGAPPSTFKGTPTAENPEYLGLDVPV
`O=C1NC(=O)c2c1c1c3ccccc3n3c1c1c2c2ccccc2n1[C@@H]1O[C@H]3C[C@@H]1CO` gave an IC50 of 250 nM.
